# Patent US20250115571A1, “OXOPIPERAZINE DERIVATIVES” (Inthera Bioscience AG, priority 2017, published 2025)
# Key:
# [1] = test system: p53 protein and p53 lysine 382 acetylation in CaSki cells; experiment: P53 protein reactivation in HPV16-positive cervical cancer cells (Western blot); format: cell-based, human; details: 72 h
# Experimental: HPV16-positive cervical cancer cells CaSki were subcultured as described in EXAMPLE 1, seeded at a density of 20′000 cells/cm^2; and readily treated with Compound 258 for 72 hrs. For western blot analysis, cells were removed from the cell culture vessels by trypsinization, washed twice with PBS (Sigma-Aldrich), lysed with a RIPA-buffer/Protease inhibitor cocktail (Sigma-Aldrich) by shaking on ice for 30 minutes followed by sonication on ice, 20 minutes centrifugation at 16′000×g, 4° C. Lysates were mixed 1:1 with 4× Lammli Buffer (Bio-Rad) prior to loading onto a Mini-PROTEAN TGX precast 4-20% PAGE gel (Bio-Rad). Gels were run for 1 hour at 110V. Gel were transferred to a Trans-Blot Turbo Mini PVDF membrane (Bio-Rad) using a Bio-Rad Trans-Blot Turbo System according to manufacturer's instructions. Equal amounts of cells were used, and the total transferred protein visualized on a Bio-Rad ChemiDoc Touch Imager prior to incubation with the primary antibody. […] Specific antibody binding was detected with the SuperSignal West Femto Maximum Sensitivity Substrate (ThermoFisher) and visualized using a Bio-Rad ChemiDoc Touch Imager.
# [2] = test system: prostate-specific antigen (PSA); experiment: Serum PSA (ELISA) in the castration-resistant prostate cancer patient-derived xenograft mouse model; format: in vivo; details: five mice with detectable tumors; daily 10 and 3 mg/kg (two mice) or 6 mg/kg (three mice); blood 3 h after the last dose
# Experimental: Mice from groups 1, 3 and 4 of the CPRC prostate patient-derived xenograft model (TABLE 9, EXAMPLE 322) were used to analyze serum PSA at the end of the experiment. […] PSA was detected by ELISA (Human Kallikrein 3/PSA Quantikine ELISA Kit, R&D Systems, Minneapolis, MN, USA) according to manufacturer's instructions. Minimal relative expected PSA-levels were calculated based on minimal PSA/tumor size ratio of vehicle-treated mice.
# [3] = test system: Vascular Endothelial Growth Factor A (VEGF); experiment: Tumor VEGF protein (ELISA) in MKN45 gastric cancer cell-derived xenograft; format: in vivo, mouse; details: approximately 3 weeks of treatment with 3 mg/kg or 6 mg/kg, effect less evident than in HCT-116
# Experimental: (§1) Mice from groups 1, 2, 4 and 5 of the HCT-116 colorectal cancer model (TABLE 12, EXAMPLE 324) and MKN45 gastric cancer model (TABLE 14, EXAMPLE 325) were used to analyze tumor Vascular Endothelial Growth Factor A (VEGF) protein expression at the end of the experiment. Tumors homogenates were prepared using a 2× Lysis Buffer (RayBiotech Life, Norcross, GA, USA) according to manufacturer's instructions. VEGF was quantified in 50 micrograms tumor by ELISA (Human VEGF Quantikine ELISA Kit, R&D Systems) according to manufacturer's instructions.
# [4] = test system: androgen receptor (AR)-target genes KLK3, TMPRSS2, SLC45A3 in LNCaP cells; experiment: P300/CBP-androgen receptor target gene expression regulation in prostate cancer cells (RT-qPCR); format: cell-based, human; details: 300 nM added concomitantly to DHT (100 nM, 4 hours)
# Experimental: LNCaP prostate cancer cells (CLS GmbH) were seeded at a density of 15′000 cells/cm^2 in 48-well cell culture-treated plates and cultured for 72 hours in RPMI1640 medium (Sigma-Aldrich) supplemented with Glutamax I (ThermoFisher-Gibco), “Antibiotic and Antimycotic Solution” (Sigma-Aldrich) and 1% fetal calf serum (Sigma-Aldrich). AR-driven gene expression response was induced by addition of the androgen signaling agonist dihydrotestosterone (Selleck Chemicals, Houston, TX, USA) to a concentration of 100 nanomol/Lt for 4 hours. Cells were treated with Compound 258 during dihydrotestosterone induction. Culture medium was carefully removed, cells were washed 1× with Phosphate-Buffered Saline (Sigma-Aldrich) and lysed using the SingleShot Cell Lysis Kit (Bio-Rad, Hercules, CA, USA). Gene expression of well-known AR-responsive genes prostate-specific antigen (KLK3, ThermoFisher), transmembrane serine protease 2 (TMPRSS2, ThermoFisher) and prostein (SLC45A3, ThermoFisher) was assessed by quantitative PCR after reverse transcription of the LNCaP RNA with the Applied Biosystem High-Capacity cDNA Reverse Transcription Kit (ThermoFisher). Gene expression was normalized against four reference genes (RPLP0, GUSB, GAPDH and ACTB, all probe detection systems were from Bio-Rad).
# [5] = test system: Vascular Endothelial Growth Factor A (VEGF); experiment: Tumor VEGF protein (ELISA) in HCT-116 colorectal cancer cell-derived xenograft; format: in vivo, mouse; details: HCT-116 xenograft, approximately 4 weeks of treatment with 3 mg/kg or 6 mg/kg
# Experimental: as §1
# [6] = test system: CT-26 cells; experiment: Cell-derived syngeneic mouse model for colorectal carcinoma combined with anti-PD1 antibodies; format: in vivo; details: ten mice per group
# Experimental: The cells were inoculated subcutaneously into the left flank of 60 mice. […] Body weights were measured daily until treatment start, then twice weekly. Tumor burden was assessed twice weekly by caliper measurement. The study was terminated four weeks post first dosing.
compound,measurement,setting,value
"CC(C)C[C@@H]1NCCN([C@@H](CC(C)C)C(=O)N2CCC3(C[C@@H]2C)OCC(CN2CCCC2)CO3)C1=O (stereo partly drawn) [Compound 258, (3S)-1-[(2S)-4-methyl-1-oxo-1-[(3s,6s,8S)-8-methyl-3-(pyrrolidin-1-ylmethyl)-1,5-dioxa-9-azaspiro[5.5]undec-an-9-yl]pentan-2-yl]-3-(2-methylpropyl)piper-azin-2-one (^≠), isomer Z]",concentration at which acetylation of p53 lysine 382 is detectable,[1],20 nM
same,concentration at which induction of p53 protein above baseline is evident,[1],7 nM
same,serum prostate-specific antigen (PSA) levels versus minimal relative expected PSA-levels,[2],clear reduction
same,tumor VEGF protein levels,[3],significantly reduced
same,repression of PSA (KLK3) gene expression stimulation,[4],complete repression
same,repression of SLC45A3 gene expression stimulation,[4],80%
same,repression of TMPRSS2 gene expression stimulation,[4],85%
same,tumor VEGF protein levels,[5],significantly reduced
same,mice alive,"[6]; day 21, 1 mg/kg p.o. QD + Anti-PD1 10 mg/kg i.p. BIW",10
same,mice alive,"[6]; day 21, 1 mg/kg p.o. QD alone",10
same,mice alive,"[6]; day 21, 3 mg/kg p.o. QD + Anti-PD1 10 mg/kg i.p. BIW",10
same,mice alive,"[6]; day 21, 3 mg/kg p.o. QD alone",10
same,mice alive,"[6]; day 23, 1 mg/kg p.o. QD + Anti-PD1 10 mg/kg i.p. BIW",10
same,mice alive,"[6]; day 23, 1 mg/kg p.o. QD alone",10
same,mice alive,"[6]; day 23, 3 mg/kg p.o. QD + Anti-PD1 10 mg/kg i.p. BIW",10
same,mice alive,"[6]; day 23, 3 mg/kg p.o. QD alone",8
same,mice alive,"[6]; day 25, 1 mg/kg p.o. QD + Anti-PD1 10 mg/kg i.p. BIW",10
same,mice alive,"[6]; day 25, 1 mg/kg p.o. QD alone",5
same,mice alive,"[6]; day 25, 3 mg/kg p.o. QD + Anti-PD1 10 mg/kg i.p. BIW",10
same,mice alive,"[6]; day 25, 3 mg/kg p.o. QD alone",6
same,mice alive,"[6]; day 28, 1 mg/kg p.o. QD + Anti-PD1 10 mg/kg i.p. BIW",7
same,mice alive,"[6]; day 28, 1 mg/kg p.o. QD alone",2
same,mice alive,"[6]; day 28, 3 mg/kg p.o. QD + Anti-PD1 10 mg/kg i.p. BIW",9
same,mice alive,"[6]; day 28, 3 mg/kg p.o. QD alone",2
same,mice alive,"[6]; day 30, 1 mg/kg p.o. QD + Anti-PD1 10 mg/kg i.p. BIW",6
same,mice alive,"[6]; day 30, 1 mg/kg p.o. QD alone",1
same,mice alive,"[6]; day 30, 3 mg/kg p.o. QD + Anti-PD1 10 mg/kg i.p. BIW",8
same,mice alive,"[6]; day 30, 3 mg/kg p.o. QD alone",0
same,mice alive,"[6]; day 32, 1 mg/kg p.o. QD + Anti-PD1 10 mg/kg i.p. BIW",4
same,mice alive,"[6]; day 32, 1 mg/kg p.o. QD alone",0
same,mice alive,"[6]; day 32, 3 mg/kg p.o. QD + Anti-PD1 10 mg/kg i.p. BIW",4
same,mice alive,"[6]; day 32, 3 mg/kg p.o. QD alone",0
same,mice alive,"[6]; day 34, 1 mg/kg p.o. QD + Anti-PD1 10 mg/kg i.p. BIW",4
same,mice alive,"[6]; day 34, 1 mg/kg p.o. QD alone",0
same,mice alive,"[6]; day 34, 3 mg/kg p.o. QD + Anti-PD1 10 mg/kg i.p. BIW",4
same,mice alive,"[6]; day 34, 3 mg/kg p.o. QD alone",0
same,mice alive,"[6]; day 36, 1 mg/kg p.o. QD + Anti-PD1 10 mg/kg i.p. BIW",4(*)
same,mice alive,"[6]; day 36, 1 mg/kg p.o. QD alone",0
same,mice alive,"[6]; day 36, 3 mg/kg p.o. QD + Anti-PD1 10 mg/kg i.p. BIW",4(*)
same,mice alive,"[6]; day 36, 3 mg/kg p.o. QD alone",0
